How the values were obtained:
Test in all cases: Test B pre-/postemergence plant response
Type in all cases: in vivo
[1] = system: yellow nutsedge (Cyperus esculentus); conditions: Postemergence
Summary of the method: (§1)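 Response scores were assigned visually after 13 to 15 days in a greenhouse, comparing treated pots with controls on a 0–100 scale where 100 denotes complete control. Preemergence treatments went onto freshly seeded loam/sand soil; postemergence treatments onto plants 2 to 18 cm tall.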

[2] = system: Italian ryegrass (Lolium multiflorum)
Summary of the method: as §1

[3] = system: large crabgrass (Digitaria sanguinalis); conditions: Postemergence
Summary of the method: as §1

[4] = system: woolly cupgrass (Eriochloa villosa); conditions: Postemergence
Summary of the method: as §1

[5] = system: corn (Zea mays); conditions: Postemergence
Summary of the method: as §1

[6] = system: Surinam grass (Brachiaria decumbens)
Summary of the method: as §1

[7] = system: green foxtail (Setaria viridis); conditions: Postemergence
Summary of the method: as §1

[8] = system: giant foxtail (Setaria faberii); conditions: Postemergence
Summary of the method: as §1

[9] = system: morningglory (Ipomoea coccinea); conditions: Postemergence
Summary of the method: as §1

[10] = system: downy bromegrass (Bromus tectorum); conditions: Postemergence
Summary of the method: as §1

[11] = system: lambsquarters (Chenopodium album); conditions: Postemergence
Summary of the method: as §1

[12] = system: blackgrass (Alopecurus myosuroides); conditions: Postemergence
Summary of the method: as §1

[13] = system: bermudagrass (Cynodon dactylon); conditions: Postemergence
Summary of the method: as §1

[14] = 31 g ai/ha, scale 0 to 100 (0 no effect, 100 complete control)
[15] = 62 g ai/ha, scale 0 (no effect) to 100 (complete control), 13 to 15 days
[16] = 125 g ai/ha, visual rating after 13 to 15 days, scale 0 (no effect) to 100 (complete control)
[17] = Postemergence, 31 g ai/ha, scale 0 to 100 (0 no effect, 100 complete control)
[18] = Postemergence, 62 g ai/ha, scale 0 (no effect) to 100 (complete control), 13 to 15 days
[19] = Postemergence, 125 g ai/ha, visual rating after 13 to 15 days, scale 0 (no effect) to 100 (complete control)
[20] = Postemergence, 250 g ai/ha, scale 0 to 100
[21] = Preemergence, 0 is no effect, 100 is complete control, rated after 13 to 15 days, application rate of this section not shown

Substance: 5-[(2-hydroxy-6-oxo-1-cyclohexen-1-yl)carbonyl]-2,3-diphenyl-4(3H)-pyrimidinone [Compound 2]
- Plant response rating, Nutsedge, Yellow [1, 14]: 15
- Plant response rating, Nutsedge, Yellow [1, 15]: 20
- Plant response rating, Nutsedge, Yellow [1, 16]: 20
- Nutsedge, Yellow plant response rating ([1]; 250 g ai/ha, scale 0 to 100): 45
- Plant response rating, Ryegrass, Italian [2, 17]: 0
- Plant response rating, Ryegrass, Italian [2, 18]: 0
- Plant response rating, Ryegrass, Italian [2, 19]: 0
- Ryegrass, Italian plant response rating [2, 20]: 0
- Ryegrass, Italian plant response rating (0 to 100 scale) [2, 21]: 0
- Plant response rating, Crabgrass, Large [3, 14]: 40
- Plant response rating, Crabgrass, Large [3, 15]: 50
- Plant response rating, Crabgrass, Large [3, 16]: 55
- Crabgrass, Large plant response rating ([3]; 250 g ai/ha, scale 0 to 100): 65
- Plant response rating, Cupgrass, Woolly [4, 14]: 0
- Plant response rating, Cupgrass, Woolly [4, 15]: 0
- Plant response rating, Cupgrass, Woolly [4, 16]: 0
- Cupgrass, Woolly plant response rating ([4]; 250 g ai/ha, scale 0 to 100): 20
- Plant response rating, Corn [5, 14]: 0
- Plant response rating, Corn [5, 15]: 0
- Plant response rating, Corn [5, 16]: 0
- Corn plant response rating ([5]; 250 g ai/ha, scale 0 to 100): 0
- Plant response rating, Surinam Grass [6, 17]: 0
- Plant response rating, Surinam Grass [6, 18]: 0
- Plant response rating, Surinam Grass [6, 19]: 10
- Surinam Grass plant response rating [6, 20]: 20
- Surinam Grass plant response rating (0 to 100 scale) [6, 21]: 0
- Plant response rating, Foxtail, Green [7, 14]: 5
- Plant response rating, Foxtail, Green [7, 15]: 10
- Plant response rating, Foxtail, Green [7, 16]: 30
- Foxtail, Green plant response rating ([7]; 250 g ai/ha, scale 0 to 100): 40
- Plant response rating, Foxtail, Giant [8, 14]: 0
- Plant response rating, Foxtail, Giant [8, 15]: 15
- Plant response rating, Foxtail, Giant [8, 16]: 20
- Foxtail, Giant plant response rating ([8]; 250 g ai/ha, scale 0 to 100): 50
- Plant response rating, Morningglory [9, 14]: 0
- Plant response rating, Morningglory [9, 15]: 20
- Plant response rating, Morningglory [9, 16]: 45
- Morningglory plant response rating ([9]; 250 g ai/ha, scale 0 to 100): 65
- Plant response rating, Bromegrass, Downy [10, 14]: 0
- Plant response rating, Bromegrass, Downy [10, 15]: 0
- Plant response rating, Bromegrass, Downy [10, 16]: 0
- Bromegrass, Downy plant response rating ([10]; 250 g ai/ha, scale 0 to 100): 10
- Plant response rating, Lambsquarters [11, 14]: 70
- Plant response rating, Lambsquarters [11, 15]: 75
- Plant response rating, Lambsquarters [11, 16]: 90
- Lambsquarters plant response rating ([11]; 250 g ai/ha, scale 0 to 100): 90
- Plant response rating, Blackgrass [12, 14]: 0
- Plant response rating, Blackgrass [12, 15]: 0
- Plant response rating, Blackgrass [12, 16]: 5
- Blackgrass plant response rating ([12]; 250 g ai/ha, scale 0 to 100): 5
- Plant response rating, Bermudagrass [13, 14]: 40
- Plant response rating, Bermudagrass [13, 15]: 50
- Plant response rating, Bermudagrass ([13]; 125 g ai/ha, scale 0 to 100 (0 no effect, 100 complete control), 13 to 15 days): 60
- Bermudagrass plant response rating ([13]; 250 g ai/ha, scale 0 to 100): 65

Source: patent US8952024B2, “Herbicidal pyrimidone derivatives” (E I du Pont de Nemours and Company, priority 2009, dated 2015)
